Laboratory results taken from PMC7069944, “Amino acid levels determine metabolism and CYP450 function of hepatocytes and hepatoma cell lines” (Nature Communications, 2020).
Values joined by “and” are separate entries in the source; they are usually repeats but may differ in a detail not shown here. Equal values may be shown once.

Tests used:
[1] = test system: HC3X; assay: Repeated-exposure DILI training compounds, resazurin conversion, HC3X; conditions: for IC50/Cmax: human; for resazurin conversion (Supplementary Figure 7D): HC3X AAGLY D40, replicates
Procedure: (§1) To evaluate the ability to predict hepatotoxicity, we adapted the differentiation assays to a 384-well format. […] As a readout, we evaluated cell viability by resazurin conversion and correlated the results to therapeutic doses (Cmax values).
(§2) PSCs were differentiated in a 384-well format. […] As a negative control, 41 wells were left untreated. HepG2 were seeded at 40,000 cells per well. […] Cells were fixed with 4% PFA. […] Drugs were administrated after 8 h of attachment.

[2] = test system: HC6X; assay: Repeated-exposure DILI training compounds, resazurin conversion, HC6X; conditions: for resazurin conversion (Supplementary Figure 7D): replicates; for % resazurin conversion: repeat exposure
Procedure: as §1, §2

[3] = test system: HepG2; assay: Repeated-exposure DILI training compounds, resazurin conversion, HepG2; conditions: for resazurin conversion (Supplementary Figure 7D): replicates; for % resazurin conversion: repeat exposure
Procedure: as §1, §2

[4] = test system: HLC; assay: Repeated-exposure DILI training compounds, resazurin conversion, HLC; conditions: repeat exposure
Procedure: as §1, §2

[5] = HC6X AAGLY D40 Remove dox, 100 uM

C1CCC(C(CC2CCCCN2)C2CCCCC2)CC1 (stereo not shown) [perhexiline]
IC50/Cmax [1]: 0.58

O=C1CC2(CCCC2)CC(=O)N1CCCCN1CCN(c2ncccn2)CC1 [Buspirone]
IC50/Cmax [1]: 120200

CCc1ccc(CCOc2ccc(CC3SC(=O)NC3=O)cc2)nc1 (stereo not shown) [Proglitazone]
resazurin conversion (Supplementary Figure 7D) ([2]; HC6X AAGLY D40, 30 uM): 134.4 and 112 and 79.3 and 107.2 and 76.2 and 91.4 | resazurin conversion (Supplementary Figure 7D) ([2]; HC6X AAGLY D40, 50 uM): 137 and 83.7 and 59.1 and 75.7 and 149.3 and 136.5 | resazurin conversion (Supplementary Figure 7D) ([2]; HC6X AAGLY D40, 100 uM): 100.9 and 141.3 and 83.6 and 90.9 and 69.2 and 155.3 | resazurin conversion (Supplementary Figure 7D) ([2]; HC6X AAGLY D40, 300 uM): 125.9 and 124.5 and 135.2 and 127.1 and 125.2 and 153.4 | resazurin conversion (Supplementary Figure 7D) ([2]; HC6X AAGLY D40, 600 uM): 91.5 and 88.8 and 88.2 and 125.7 and 101 and 136.6 | resazurin conversion (Supplementary Figure 7D) ([2]; HC6X AAGLY D40, 1200 uM): 94.8 and 131 and 95.9 and 103.6 and 97.2 and 136.5 | resazurin conversion (Supplementary Figure 7D) ([2]; HC6X AAGLY D40 Remove dox, 30 uM): 121 and 98.9 and 91.2 and 87.5 and 101 | resazurin conversion (Supplementary Figure 7D) ([2]; HC6X AAGLY D40 Remove dox, 50 uM): 105.9 and 84.2 and 118.5 and 71.8 and 81.4 and 110 | resazurin conversion (Supplementary Figure 7D) [2, 5]: 120.6 and 83.7 and 95.6 and 119.3 and 129.6 | resazurin conversion (Supplementary Figure 7D) ([2]; HC6X AAGLY D40 Remove dox, 300 uM): 107.4 and 124.1 and 139.3 and 91.4 and 117.3 and 157.9 | resazurin conversion (Supplementary Figure 7D) ([2]; HC6X AAGLY D40 Remove dox, 600 uM): 74.1 and 108.7 and 93.3 and 116.1 and 116 and 105.8 | resazurin conversion (Supplementary Figure 7D) ([2]; HC6X AAGLY D40 Remove dox, 1200 uM): 119 and 156.2 and 148 and 139.2 and 120.5 | resazurin conversion (Supplementary Figure 7D) ([3]; HepG2 AAGLY D30, 30 uM): 76.5 (2×) and 98.3 and 82.8 and 103.2 and 80.9 | resazurin conversion (Supplementary Figure 7D) ([3]; HepG2 AAGLY D30, 50 uM): 86.1 and 109.6 and 86.4 and 100 and 77.1 and 92.9 | resazurin conversion (Supplementary Figure 7D) ([3]; HepG2 AAGLY D30, 100 uM): 85.4 and 96.2 and 90.6 and 100.7 and 78.9 and 86.6 | resazurin conversion (Supplementary Figure 7D) ([3]; HepG2 AAGLY D30, 300 uM): 105.7 and 117.9 and 106.2 and 102.2 | resazurin conversion (Supplementary Figure 7D) ([3]; HepG2 AAGLY D30, 600 uM): 91.8 and 99.3 and 126.4 and 102.6 and 116.8 | resazurin conversion (Supplementary Figure 7D) ([3]; HepG2 AAGLY D30, 1200 uM): 95.2 and 102.5 and 118.4 and 129.4 and 110.4 and 135.6 | resazurin conversion (Supplementary Figure 7D) ([3]; HepG2 CTL D7, 30 uM): 120.4 and 118.8 and 101.6 and 104 and 100.1 | resazurin conversion (Supplementary Figure 7D) ([3]; HepG2 CTL D7, 50 uM): 129.5 and 93.8 and 100.8 and 96.7 and 101.2 and 122.3 | resazurin conversion (Supplementary Figure 7D) ([3]; HepG2 CTL D7, 100 uM): 125.4 and 88.5 and 98 and 96 (2×) and 110.7 | resazurin conversion (Supplementary Figure 7D) ([3]; HepG2 CTL D7, 300 uM): 117.2 and 87 and 94.6 (2×) and 95.5 and 111.8 | resazurin conversion (Supplementary Figure 7D) ([3]; HepG2 CTL D7, 600 uM): 86.3 and 70.3 and 76.6 and 75.3 and 70.1 and 87.4 | resazurin conversion (Supplementary Figure 7D) ([3]; HepG2 CTL D7, 1200 uM): 57 and 33 and 42.5 and 44.8 and 41.7 and 59 | resazurin conversion (Supplementary Figure 7D) ([1]; 30 uM): 121 and 98.9 and 91.2 and 87.5 and 101 | resazurin conversion (Supplementary Figure 7D) ([1]; 50 uM): 105.9 and 84.2 and 118.5 and 71.8 and 81.4 and 110 | resazurin conversion (Supplementary Figure 7D) ([1]; 100 uM): 120.6 and 83.7 and 95.6 and 119.3 and 129.6 | resazurin conversion (Supplementary Figure 7D) ([1]; 300 uM): 107.4 and 124.1 and 139.3 and 91.4 and 117.3 and 157.9 | resazurin conversion (Supplementary Figure 7D) ([1]; 600 uM): 74.1 and 108.7 and 93.3 and 116.1 and 116 and 105.8 | resazurin conversion (Supplementary Figure 7D) ([1]; 1200 uM): 119 and 156.2 and 148 and 139.2 and 120.5

O=C1CC2(CCCC2)CC(=O)N1CCCCN1CCN(c2ncccn2)CC1 [Buspiron]
% resazurin conversion ([2]; HC6X AAGLY D40, 3 uM): 109.5% and 96.9% and 120.8% and 98% and 87.5% and 117.9% | % resazurin conversion ([2]; HC6X AAGLY D40, 5 uM): 83.7% and 97.5% and 104.1% and 109.8% and 83.3% and 99.7% | % resazurin conversion ([2]; HC6X AAGLY D40, 10 uM): 85.5% and 135.9% and 111.1% and 117.5% and 91.9% and 102.2% | % resazurin conversion ([2]; HC6X AAGLY D40, 30 uM): 114% and 167.8% and 149.8% and 117.8% and 94% and 164.1% | % resazurin conversion ([2]; HC6X AAGLY D40, 50 uM): 112.9% and 116.6% and 111.2% and 167.3% and 107.2% and 107.3% | % resazurin conversion ([2]; HC6X AAGLY D40, 100 uM): 109.2% and 112.4% and 163.5% and 127.2% and 106% and 162.8% | % resazurin conversion ([2]; HC6X AAGLY D40, 300 uM): 140.3% and 103.5% and 121.9% and 115.9% and 101.2% and 155.2% | % resazurin conversion ([2]; HC6X AAGLY D40, 600 uM): 143.6% and 91% and 112.3% and 121.3% and 99.3% and 149.8% | % resazurin conversion ([2]; HC6X AAGLY D40, 1200 uM): 56.9% and 60.8% and 76.3% and 66.9% and 59.2% | % resazurin conversion ([2]; HC6X AAGLY D40 Remove dox, 3 uM): 93.4% and 152.6% and 130.2% and 156.1% and 101.5% and 127.1% | % resazurin conversion ([2]; HC6X AAGLY D40 Remove dox, 10 uM): 169.9% and 114.9% and 169.4% and 120.1% and 97.5% and 96% | % resazurin conversion [2, 5]: 158.4% and 106.8% and 179.1% and 111.4% and 123.7% and 132% | % resazurin conversion ([4]; HLC AAGLY D40, 5 uM): 67.7% and 92.7% and 64.2% and 84.3% and 47.9% and 66.7% | % resazurin conversion ([4]; HLC AAGLY D40, 10 uM): 85.8% and 64.9% and 92.1% and 82% and 66.1% and 66.8% | % resazurin conversion ([4]; HLC AAGLY D40, 30 uM): 116.3% and 73.9% and 114.6% and 80.9% and 111.6% and 83.2% | % resazurin conversion ([4]; HLC AAGLY D40, 600 uM): 33.4% and 36.6% and 61.5% and 38.3% and 40.4% and 34.1% | % resazurin conversion ([4]; HLC AAGLY D40, 1200 uM): 36.8% and 25.4% and 26.6% and 31.3% and 28.1% and 38% | % resazurin conversion ([4]; HLC LDM D40, 3 uM): 103.9% and 103.1% and 108.1% and 79.4% and 66.2% and 77.5% | % resazurin conversion ([4]; HLC LDM D40, 5 uM): 89.3% and 69.5% and 87.6% and 70.2% and 108.2% | % resazurin conversion ([4]; HLC LDM D40, 10 uM): 86.6% and 87.3% and 101% and 83.8% and 104.7% and 105% | % resazurin conversion ([4]; HLC LDM D40, 30 uM): 71.9% and 90.1% and 102.1% and 75.5% and 80.5% and 81.4% | % resazurin conversion ([4]; HLC LDM D40, 50 uM): 56.1% and 105.8% and 92.3% and 104% and 79.6% | % resazurin conversion ([4]; HLC LDM D40, 100 uM): 84.7% and 120.8% and 121.2% and 77.9% and 92% and 91.2% | % resazurin conversion ([3]; HepG2 AAGLY D30, 3 uM): 82.9% and 82.6% and 85.2% and 70.1% and 73.2% | % resazurin conversion ([3]; HepG2 AAGLY D30, 5 uM): 75.8% and 88.2% and 72.9% and 66.2% and 79.4% and 72.2% | % resazurin conversion ([3]; HepG2 AAGLY D30, 10 uM): 70.9% and 76.8% and 83.7% and 64.5% and 73.5% and 76.4% | % resazurin conversion ([3]; HepG2 AAGLY D30, 30 uM): 83.2% and 92.9% and 78.7% and 72.3% and 78.9% and 76.5% | % resazurin conversion ([3]; HepG2 AAGLY D30, 50 uM): 80.3% and 98.3% and 89.9% and 83.3% and 93.4% and 81.9% | % resazurin conversion ([3]; HepG2 AAGLY D30, 100 uM): 88.3% and 87.7% and 85.2% and 77.2% and 94.7% and 81.8% | % resazurin conversion ([3]; HepG2 AAGLY D30, 300 uM): 47.4% and 86.8% and 88.6% and 79.7% and 88.3% and 80.1% | % resazurin conversion ([3]; HepG2 AAGLY D30, 600 uM): 76.5% and 91.9% and 75.1% and 71.1% and 78% and 76.7% | % resazurin conversion ([3]; HepG2 AAGLY D30, 1200 uM): 38% and 34.1% and 34.5% and 34.6% and 35.7% | % resazurin conversion ([3]; HepG2 CTL D7, 3 uM): 92.8% | % resazurin conversion ([3]; HepG2 CTL D7, 5 uM): 96.4% and 97.6% and 106.5% and 96.6% and 98% and 90.2% | % resazurin conversion ([3]; HepG2 CTL D7, 10 uM): 94.3% and 94.1% and 99.5% and 93.5% and 98.4% and 95.6% | % resazurin conversion ([3]; HepG2 CTL D7, 30 uM): 82.7% and 84.2% and 92.3% and 83% and 85.3% and 78.8% | % resazurin conversion ([3]; HepG2 CTL D7, 50 uM): 72.7% and 67.2% and 78.7% and 68.5% and 76.7% and 71.9% | % resazurin conversion ([3]; HepG2 CTL D7, 100 uM): 67.5% and 61.8% and 72.7% and 60.8% and 71.2% and 63.1% | % resazurin conversion ([3]; HepG2 CTL D7, 300 uM): 61.1% and 51.9% and 57.2% and 57% and 59.1% and 57.6% | % resazurin conversion ([3]; HepG2 CTL D7, 600 uM): 38.6% and 29% and 35.3% and 36.3% and 35.1% and 38.2% | % resazurin conversion ([3]; HepG2 CTL D7, 1200 uM): 7% and 6.5% and 7.1% and 6.8% and 6.6%
